Assay results published in patent publication US20250154140A1 (Sunnybrook Research Institute, priority 2022, published 2025).

Key:
BAX = BAX (Homo sapiens, UniProt Q07812); experiment: Permeabilization of isolated mitochondria, Smac-mCherry release (cBID activated BAX); type: biochemical, mouse; design: made in house; host or cells: Escherichia coli BL21-AI; details: concentrations up to 60 uM
Procedure: Animal breeding and handling was performed in accordance with local regulations after approval by the Animal Care Committee at Sunnybrook Research Institute, Toronto. The isolation of mouse-liver mitochondria, and use with Bcl-2 family proteins to measure activity and protein-protein interactions was previously described in detail (Pogmore et al., 2016). In mouse liver, BAX is either cytoplasmic or loosely bound to mitochondria. Therefore, BAX is not present in isolated mitochondria. For this reason, when mitochondria are isolated from liver from BAK−/− mice they contain neither BAX or BAK. […] The supernatant was discarded, and the remaining pellet is resuspended in regeneration buffer (300 mM Trehalose, 10 mM HEPES-KOH pH 7.7, 80 mM KCl, 1 mM EGTA, 1 mM EDTA, 0.1% BSA, 5 mM succinate, 2 mM ATP, 10 μM phosphocreatine, and 10 μg/mL creatine kinase) at a protein concentration of 1 mg/mL, (determined by Bradford assay) for immediate use as the source of membranes for FRET measurements. […]
For BAX^−/−/BAK^−/−BMK SMAC-mCherry mitochondria, 2 nM cBID and 20 nM BAX was used to fully permeabilize the mitochondria. […] The percentage of SMAC-mCherry release was determined by fluorometric analysis of the supernatant and pellet fractions by measuring the fluorescence intensity (F) of mCherry (excitation 580, emission 610 in a Tecan M1000).

FL EGFR = biological target: T1, FL EGFR (Homo sapiens, UniProt P00533); experiment: EGFR kinase assay (ADP-Glo); type: biochemical
T1 construct: kinase domain of EGFR (amino acids 695-1210); purchased Promega V3831
Procedure: A peptide containing the kinase domain of EGFR (amino acids 695-1210) was used to assess the inhibitory potency of the inhibitors. The ADP-Glo kinase assay (Promega V9101), and the EGFR kinase enzyme (Promega V3831) were used according to the supplier's instructions. Briefly, […] reactions were assembled in wells of a 384 well plate as follows: 5 μL of the kinase reaction, 5 μL of the ADP depletion reagent, and 10 μL of the luciferase reagent. For the kinase reaction: 1 μL of the inhibitor (dissolved in DMSO) was mixed with 2 μL EGFR peptide ([…]), 1 μL of a poly Glu4Tyr1 peptide (0.2 μg/μL), 1 μL reaction buffer, and 1 μL of ATP (final concentration of 5 μM). The kinase reaction was incubated at room temperature for 1 hour. 5 μL of the ATP depletion/kinase terminating reagent was mixed into each well and incubated at room temperature for 40 minutes. 10 μL of the kinase detection reagent containing luciferase was mixed into each well and incubated at room temperature for 30 minutes for bioluminescent detection of ADP produced from the kinase reaction in step 1. Bioluminescent signal was detected in a Tecan Safire^2 with a black plug covering the excitation filter, and an empty emission filter. The integration time was increased to […] to detect enough luminescence per reading.

BAK = biological target: T2, BAK (Mus musculus, UniProt O08734); experiment: Permeabilization of isolated mitochondria, Smac-mCherry release (BIM activated BAK); type: biochemical; details: concentrations up to 60 uM
T2 construct: endogenous in cells; host or cells: heavy membranes (mitochondria) of BAX-/- baby mouse kidney cells expressing Smac-mCherry
T2 sequence (O08734 2-209 limits assumed): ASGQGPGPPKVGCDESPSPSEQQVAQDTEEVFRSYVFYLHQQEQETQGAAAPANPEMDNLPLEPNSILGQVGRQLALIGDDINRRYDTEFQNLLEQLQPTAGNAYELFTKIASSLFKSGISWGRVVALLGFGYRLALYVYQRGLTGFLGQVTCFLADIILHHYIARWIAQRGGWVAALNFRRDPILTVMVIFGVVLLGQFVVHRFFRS

BAX, sequence (Q07812 whole entry): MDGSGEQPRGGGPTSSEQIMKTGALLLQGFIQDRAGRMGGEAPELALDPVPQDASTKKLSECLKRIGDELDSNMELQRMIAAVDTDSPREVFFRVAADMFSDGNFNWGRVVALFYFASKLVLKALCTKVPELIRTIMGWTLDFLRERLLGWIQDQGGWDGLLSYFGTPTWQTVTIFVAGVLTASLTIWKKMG
T1 sequence (P00533 695-1210): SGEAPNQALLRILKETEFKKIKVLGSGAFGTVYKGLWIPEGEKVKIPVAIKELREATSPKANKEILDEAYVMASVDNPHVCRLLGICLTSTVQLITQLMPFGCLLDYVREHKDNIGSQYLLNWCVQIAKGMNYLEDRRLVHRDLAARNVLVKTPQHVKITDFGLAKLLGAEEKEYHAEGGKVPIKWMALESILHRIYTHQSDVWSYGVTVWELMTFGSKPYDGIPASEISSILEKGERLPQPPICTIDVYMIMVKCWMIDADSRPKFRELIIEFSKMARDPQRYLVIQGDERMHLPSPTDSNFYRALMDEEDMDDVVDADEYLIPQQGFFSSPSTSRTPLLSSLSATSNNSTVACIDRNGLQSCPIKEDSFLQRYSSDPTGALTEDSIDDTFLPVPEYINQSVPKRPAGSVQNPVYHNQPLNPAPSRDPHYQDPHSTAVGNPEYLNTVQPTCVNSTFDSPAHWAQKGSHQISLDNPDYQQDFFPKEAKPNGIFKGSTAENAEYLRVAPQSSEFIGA

SMILES	inhibition of BAX mediated permeabilization of mitochondria (BAX)	Hill Slope (FL EGFR; FL EGFR)	inhibition of BAK mediated permeabilization of mitochondria (BAK)	kinase inhibitory activity (FL EGFR; at or below 10 uM)
COc1cc2ncnc(Nc3ccc(F)c(Cl)c3)c2cc1NC(=O)/C=C/CN1CCCCC1 [Dacomitinib, reference compound]	equally effective inhibitors	−1.3	equally effective inhibitors	
COc1cc2ccnc(Nc3ccc(F)c(Cl)c3)c2cc1NC(=O)CCCN1CCCCC1 [Compound I-1, N-(1-((3-chloro-4-fluorophenyl)amino)-6-methoxyisoquinolin-7-yl)-4-(piperidin-1-yl)butanamide]	equally effective inhibitors		equally effective inhibitors	no appreciable kinase inhibitory activity
